Patent US20060057156A1, “Materials and methods for inductions of immune tolerance” (priority 2002, published 2006)
Where two headings read alike, the source gives them in different places.

Assays:
[1] = system: PBMC from EBV seropositive donors; type: cell-based, human; details: for IL-10 secretion by PBMC: EBV seropositive donors, peptides at 15 μg/ml, ELISA five days after stimulation; for gamma-IFN induction: control peptides of FIG. 6, seropositive donors
[2] = system: PBMC from EBV seropositive donors; experiment: Suppression of proliferative and cytokine responses to mitogen, antigens and allergens; type: cell-based, human; details: three EBV seropositive donors, FIG. 6

Row | Substance | IL-10 secretion by PBMC [1] | effect on proliferative and gamma-IFN responses against recall antigen (PPD) [2] | further results
1 | LLLMITLLLIALWNLHGQAL [P18] | IL-10 inducing | inhibit proliferative responses | 
2 | FLGIVLFIFGCLLVLGIWIY [P22] | IL-10 inducing | inhibit proliferative responses | 
3 | LLLLALLFWLYIVMSDWTGG [P7] | IL-10 inducing | inhibit proliferative responses | IL-10 secretion by PBMC ([1]; listed as peptide 7): one of many effective Tr1 IL-10 inducers
4 | LILLIIALYLQQNWWTLLVD [P31] | IL-10 inducing | inhibit proliferative responses | 
5 | HDPLPQDPDNTDDNGPQDPD [P56] |  |  | gamma-IFN induction [1]: gamma-IFN inducing
6 | TIWQLLAFFLAFFLDLILLY [P28] |  |  | gamma-IFN induction [1]: gamma-IFN inducing
7 | concanavalin A [Con A, reference compound] |  |  | response pattern to control mitogen / recall antigen ([1]; regardless of EBV serological status): induced responses dominated by proliferation and γ-IFN production
8 | LLFWLYIVMSDWTGGALLVL [P8] | shown to induce IL-10 |  | 
9 | QQNWWTLLVDLLWLLLFLAI [P33] |  |  | gamma-IFN induction [1]: gamma-IFN inducing
10 | LLWLLLFLAILIWMYYHGQR [P35] | IL-10 inducing | inhibit proliferative responses | 
11 | PRGPPLSSSLGLALLLLLLA [P4] | IL-10 inducing | inhibit proliferative responses | percentage of EBV seropositive donors whose PBMC responded with IL-10 ([1]; 20 seropositive donors, peptide 15 μg/ml): 80%
12 | LFIFGCLLVLGIWIYLLEML [P23] | IL-10 inducing | inhibit proliferative responses | 
13 | ILIIFIFRRDLLCPLGALCI [P14] | shown to induce IL-10 |  | 
